The nature of the test: Antagonist activity at CRTH2 receptor in human whole blood assessed as inhibition of PGD2-induced eosinophil shape change after 10 mins by fluorescence assay.

`Cc1c(Cc2ccccc2S(=O)(=O)c2ccccc2)c2c(n1CC(=O)O)CCNC2=O`: the IC50 (as a rule, the concentration that inhibits the measured activity by half) came to 8 nM.

Source of the values: BindingDB's records for doi:10.1016/j.bmcl.2014.08.026 (Rhône-Poulenc Rorer, 2014).
